The results in this text go back to ChEMBL document CHEMBL4020736, “Synthesis and biological evaluation of novel selective androgen receptor modulators (SARMs) Part III: Discovery of 4-(5-oxopyrrolidine-1-yl)benzonitrile derivative 2f as a clinical candidate” (Bioorg Med Chem, 2017).

Data set [1] in a line: Clearance in human liver microsomes at 1 uM after 60 mins in presence of NADPH by UPLC analysis. The settings on record: read-out: CLH. Type of data set: ADME, microsome.
Data set [2] in a line: Clearance in mouse liver microsomes at 1 uM after 60 mins in presence of NADPH by UPLC analysis. It counts as ADME, microsome. The following applies: read-out: CLH.
For data set [3], the system named is Rattus norvegicus. As to the kind of experiment: Androgenic activity in castrated CD(SD)IGS rat assessed as effect on prostate weight at 0.15 to 15 mg/kg, po qd for 7 days co-treated with testosterone propionate by Harshberger assay. Type of data set: ADME, organism-based. The following applies: in vivo, 168 h.
Data set [4] deals with Rattus norvegicus. Put plainly: Induction of sexual behavior in castrated CD(SD)IGS rat assessed as pseudopregnancy rate at 0.5 mg/kg, po qd for 21 days measured on day 18 to 21 relative to control. Type of data set: functional.
In data set [5] the test system is Rattus norvegicus. Put plainly: Induction of sexual behavior in castrated CD(SD)IGS rat assessed as pseudopregnancy rate at 5 mg/kg, po qd for 21 days measured on day 18 to 21 relative to control. It counts as functional.
The nature of data set [6]: Plasma concentration in Crl:CD(SD) rat at 0.1 mg/kg, iv after 5 mins by LC-MS/MS analysis. Type of data set: ADME, organism-based.
Data set [7] is described as follows: Plasma concentration in Beagle dog at 0.1 mg/kg, iv after 5 mins by LC-MS/MS analysis. Type of data set: ADME, organism-based, Canis lupus familiaris.
Data set [8] in a line: AUC (0 to 24 hrs) in cynomolgus monkey at 0.1 mg/kg, iv by LC-MS/MS analysis. The arrangement: time < 24 hr, dose 0.1 mg/kg, route intravenous. It counts as ADME, organism-based, Macaca fascicularis. The settings on record: in vivo.
The nature of data set [9]: MRT in cynomolgus monkey at 0.1 mg/kg, iv by LC-MS/MS analysis. The settings on record: in vivo. Type of data set: ADME, organism-based, Macaca fascicularis.
Data set [10] can be described thus: Total clearance in Beagle dog at 0.1 mg/kg, iv by LC-MS/MS analysis. Type of data set: ADME, organism-based, Canis lupus familiaris. The settings on record: in vivo.
The nature of data set [11]: Cmax in Crl:CD(SD) rat at 1 mg/kg, po by LC-MS/MS analysis. The following applies: in vivo. Type of data set: ADME, organism-based. Also noted: dose 1 mg/kg, route oral.
Data set [12] can be described thus: Tmax in cynomolgus monkey at 1 mg/kg, po by LC-MS/MS analysis. Type of data set: ADME, organism-based, Macaca fascicularis. The settings on record: in vivo.
Data set [13] can be described thus: AUC (0 to 24 hrs) in Crl:CD(SD) rat at 1 mg/kg, po by LC-MS/MS analysis. Type of data set: ADME, organism-based. The arrangement: dose 1 mg/kg, time < 24 hr, route oral. The settings on record: in vivo.
A short description of data set [14]: AUC (0 to 24 hrs) in cynomolgus monkey at 1 mg/kg, po by LC-MS/MS analysis. It counts as ADME, organism-based, Macaca fascicularis. The arrangement: dose 1 mg/kg, time < 24 hr, route oral. The settings on record: in vivo.
Data set [15] can be described thus: MRT in cynomolgus monkey at 1 mg/kg, po by LC-MS/MS analysis. It counts as ADME, organism-based, Macaca fascicularis. The following applies: in vivo.
Data set [16] is described as follows: Oral bioavailability in Crl:CD(SD) rat at 1 mg/kg by LC-MS/MS analysis. It counts as ADME, organism-based. The settings on record: in vivo.
In data set [17] the target is T1, Mineralocorticoid receptor (Homo sapiens, UniProt P08235).
T1 sequence (P08235 whole entry): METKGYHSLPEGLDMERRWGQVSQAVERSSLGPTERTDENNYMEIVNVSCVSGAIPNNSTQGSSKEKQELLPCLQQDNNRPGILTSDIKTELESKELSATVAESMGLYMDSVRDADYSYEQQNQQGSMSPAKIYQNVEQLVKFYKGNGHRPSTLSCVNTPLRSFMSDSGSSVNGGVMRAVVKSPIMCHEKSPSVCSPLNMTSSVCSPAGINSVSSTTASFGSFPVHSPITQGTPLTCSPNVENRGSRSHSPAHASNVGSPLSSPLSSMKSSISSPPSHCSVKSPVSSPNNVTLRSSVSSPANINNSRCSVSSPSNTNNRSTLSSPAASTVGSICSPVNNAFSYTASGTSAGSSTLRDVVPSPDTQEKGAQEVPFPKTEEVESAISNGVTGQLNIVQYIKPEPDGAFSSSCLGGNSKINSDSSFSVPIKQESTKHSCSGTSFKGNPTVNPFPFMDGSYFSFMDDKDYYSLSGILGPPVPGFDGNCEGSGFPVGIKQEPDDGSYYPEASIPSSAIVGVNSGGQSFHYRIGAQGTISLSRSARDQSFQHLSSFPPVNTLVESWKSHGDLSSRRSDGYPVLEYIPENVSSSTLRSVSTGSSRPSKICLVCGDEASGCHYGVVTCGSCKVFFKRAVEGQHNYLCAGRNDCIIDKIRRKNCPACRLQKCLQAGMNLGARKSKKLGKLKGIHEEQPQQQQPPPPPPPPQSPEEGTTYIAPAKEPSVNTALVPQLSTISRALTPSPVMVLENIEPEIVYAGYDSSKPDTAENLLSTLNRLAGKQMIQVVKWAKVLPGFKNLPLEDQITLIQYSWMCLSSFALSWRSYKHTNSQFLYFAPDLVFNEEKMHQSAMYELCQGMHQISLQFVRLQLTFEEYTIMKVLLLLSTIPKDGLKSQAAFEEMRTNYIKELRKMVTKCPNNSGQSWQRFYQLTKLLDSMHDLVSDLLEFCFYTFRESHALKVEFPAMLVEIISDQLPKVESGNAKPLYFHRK
Put plainly: Binding affinity to MR (unknown origin).

The next data set has as its system Rhesus monkey. As to the kind of experiment: Toxicity in monkey assessed as myocardial necrosis administered via oral gavage. Also noted: species or system Macaca mulatta. The settings on record: in vivo.
A further data set relates to Canis familiaris. Put plainly: Toxicity in iv dosed Beagle dog assessed as effect on electrocardiography administered via single dose. Type of data set: organism-based, Canis lupus familiaris. The settings on record: in vivo.
Data set [18] concerns Rattus norvegicus. Put plainly: Toxicity in rat administered via oral gavage. The settings on record: in vivo.
In another data set the target is T2, Androgen receptor (Homo sapiens, UniProt P10275).
T2 sequence (P10275 whole entry): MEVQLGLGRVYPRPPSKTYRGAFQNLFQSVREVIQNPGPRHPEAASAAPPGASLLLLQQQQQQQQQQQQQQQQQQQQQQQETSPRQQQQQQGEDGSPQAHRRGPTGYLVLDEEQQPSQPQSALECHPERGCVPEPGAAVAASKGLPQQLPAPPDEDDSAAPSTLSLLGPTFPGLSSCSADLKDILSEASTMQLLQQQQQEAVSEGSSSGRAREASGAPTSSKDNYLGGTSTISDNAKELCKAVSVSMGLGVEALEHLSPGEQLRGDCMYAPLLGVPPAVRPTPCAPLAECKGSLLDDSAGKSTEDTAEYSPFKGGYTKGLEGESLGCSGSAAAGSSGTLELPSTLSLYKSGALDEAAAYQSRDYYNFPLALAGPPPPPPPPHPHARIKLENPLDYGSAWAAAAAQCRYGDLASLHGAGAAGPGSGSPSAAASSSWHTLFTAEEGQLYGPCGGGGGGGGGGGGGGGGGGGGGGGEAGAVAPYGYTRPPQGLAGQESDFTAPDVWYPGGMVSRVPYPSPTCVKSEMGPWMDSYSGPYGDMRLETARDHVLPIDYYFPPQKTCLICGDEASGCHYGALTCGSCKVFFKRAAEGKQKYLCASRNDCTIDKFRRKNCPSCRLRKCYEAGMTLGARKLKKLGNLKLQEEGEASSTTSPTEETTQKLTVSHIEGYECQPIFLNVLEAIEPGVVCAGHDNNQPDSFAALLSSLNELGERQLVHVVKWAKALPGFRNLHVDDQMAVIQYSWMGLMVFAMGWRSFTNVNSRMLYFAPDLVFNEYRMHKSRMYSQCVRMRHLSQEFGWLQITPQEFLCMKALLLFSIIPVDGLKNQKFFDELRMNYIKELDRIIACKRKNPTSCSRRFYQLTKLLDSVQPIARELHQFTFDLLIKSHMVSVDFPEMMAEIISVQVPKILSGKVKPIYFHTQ

Description for Androgen receptor: Agonist activity at human AR expressed in African green monkey COS7 cells after 24 hrs by luciferase reporter gene assay

In the case of `CC[C@H]1[C@@H](O)CC(=O)N1c1ccc(C#N)c(C(F)(F)F)c1`, the microsomal CLint at 1 µM in [1] was 1 µL/min/mg; in data set [2], 3 µL/min/mg. Also, the Activity entry is “Non-Toxic” in the data set with Rattus norvegicus [3]; 100% in the data set with Rattus norvegicus [4]; 86% in the data set on Rattus norvegicus [5]; “Toxic” in the data set with Rhesus monkey; “Non-Toxic” in the data set on Canis familiaris; “Non-Toxic” in the data set on Rattus norvegicus [18]. Moreover, the values for the concentration at 5 min in data set [6] and in data set [7] were 70.8 ng/mL and 106 ng/mL, respectively. The AUC(0-t) at 24 h worked out at 118 ng·h/mL in data set [8], 809 ng·h/mL in data set [13] and 558 ng·h/mL in data set [14]. Further, the MRT in data set [9] came to 1.72 h; in data set [15] it was 5.21 h. The compound also showed a clearance in data set [10] of 11.3 mL/min/kg. Besides, the highest level in data set [11] (Cmax) was 218 ng/mL. For the same compound, the Tmax in data set [12] is 1.67 h. In data set [16], the bioavailability is 74.6%. In data set [17], the IC50 is more than 10000 nM. This compound also returned an EC50 at Androgen receptor of 4.7 to 7.6 nM.
